According to ChEMBL document CHEMBL1909046, “DrugMatrix in vitro pharmacology data”:

Columns and labels:
[1] = molecular target: T1, 5-hydroxytryptamine receptor 2C (Homo sapiens, UniProt P28335); assay: DRUGMATRIX: Serotonin (5-Hydroxytryptamine) 5-HT2C radioligand binding (ligand: [3H] Mesulergine); format: cell membranes, CHO-K1, Membrane; settings: Not Active = under 50% inhibition at 10 µM; for Ki: read-out: Ki
T1 sequence (P28335 whole entry): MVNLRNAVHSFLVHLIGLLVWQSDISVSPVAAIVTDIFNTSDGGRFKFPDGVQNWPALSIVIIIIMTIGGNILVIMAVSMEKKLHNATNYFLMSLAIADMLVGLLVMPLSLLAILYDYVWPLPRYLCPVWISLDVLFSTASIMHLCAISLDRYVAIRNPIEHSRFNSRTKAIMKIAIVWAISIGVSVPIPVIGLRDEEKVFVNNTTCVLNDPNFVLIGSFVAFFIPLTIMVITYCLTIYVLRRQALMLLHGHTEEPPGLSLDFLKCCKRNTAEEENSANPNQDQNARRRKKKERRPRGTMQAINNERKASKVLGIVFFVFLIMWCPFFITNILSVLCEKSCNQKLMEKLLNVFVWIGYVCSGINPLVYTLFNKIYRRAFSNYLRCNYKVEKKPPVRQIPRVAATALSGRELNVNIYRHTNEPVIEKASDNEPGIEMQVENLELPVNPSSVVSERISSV

[2] = molecular target: C-C chemokine receptor type 5 (Homo sapiens, UniProt P51681); format: cell membranes, Membrane; settings: hek293; further: in other assays of this panel Not Active means under 50% inhibition at 10 µM
Chain of C-C chemokine receptor type 5 (P51681 whole entry): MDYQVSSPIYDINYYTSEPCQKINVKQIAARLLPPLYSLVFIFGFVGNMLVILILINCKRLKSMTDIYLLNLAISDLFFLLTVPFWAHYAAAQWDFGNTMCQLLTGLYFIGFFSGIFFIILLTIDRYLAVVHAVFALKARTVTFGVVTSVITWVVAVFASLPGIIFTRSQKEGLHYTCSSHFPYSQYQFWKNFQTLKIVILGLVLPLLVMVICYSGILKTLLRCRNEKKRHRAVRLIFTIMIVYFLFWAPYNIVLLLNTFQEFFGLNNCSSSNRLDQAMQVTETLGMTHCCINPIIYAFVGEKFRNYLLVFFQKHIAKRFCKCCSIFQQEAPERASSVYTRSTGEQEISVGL

Progesterone receptor = molecular target: T2, Progesterone receptor (Bos taurus, UniProt Q690N0); assay: DRUGMATRIX: Progesterone radioligand binding (ligand: [3H] R-5020); format: tissue-based, Uterus; settings: Not Active = under 50% inhibition at 10 µM
T2 sequence (Q690N0 whole entry): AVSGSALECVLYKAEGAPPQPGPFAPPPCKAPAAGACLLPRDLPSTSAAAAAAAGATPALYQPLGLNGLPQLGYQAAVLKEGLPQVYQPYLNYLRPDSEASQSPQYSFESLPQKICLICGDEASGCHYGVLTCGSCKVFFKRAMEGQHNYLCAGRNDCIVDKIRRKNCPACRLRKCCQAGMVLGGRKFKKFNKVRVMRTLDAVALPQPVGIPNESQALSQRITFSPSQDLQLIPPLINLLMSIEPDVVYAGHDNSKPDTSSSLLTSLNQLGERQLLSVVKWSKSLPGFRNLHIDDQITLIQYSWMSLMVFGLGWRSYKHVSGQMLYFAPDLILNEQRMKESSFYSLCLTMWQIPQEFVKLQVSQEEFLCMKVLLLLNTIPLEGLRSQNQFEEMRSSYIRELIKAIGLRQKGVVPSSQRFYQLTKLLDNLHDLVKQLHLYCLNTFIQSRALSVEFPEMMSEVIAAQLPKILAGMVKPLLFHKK

[3] = molecular target: T3, Neuropeptide Y receptor type 2 (Homo sapiens, UniProt P49146); format: cell membranes, Membrane; settings: kan-ts; further: in other assays of this panel Not Active means under 50% inhibition at 10 µM
T3 sequence (P49146 whole entry): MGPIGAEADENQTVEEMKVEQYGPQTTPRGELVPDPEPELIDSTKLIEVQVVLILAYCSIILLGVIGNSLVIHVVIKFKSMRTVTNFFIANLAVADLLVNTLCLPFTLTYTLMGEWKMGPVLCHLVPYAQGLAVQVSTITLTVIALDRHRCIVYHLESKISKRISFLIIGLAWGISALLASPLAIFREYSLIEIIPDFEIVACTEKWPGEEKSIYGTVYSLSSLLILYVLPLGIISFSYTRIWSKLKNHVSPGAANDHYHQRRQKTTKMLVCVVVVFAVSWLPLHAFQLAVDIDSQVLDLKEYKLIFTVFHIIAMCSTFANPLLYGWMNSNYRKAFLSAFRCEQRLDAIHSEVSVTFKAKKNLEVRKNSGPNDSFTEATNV

[4] = DRUGMATRIX: Leukotriene, BLT (LTB4) radioligand binding (ligand: [3H]LTB4); format: cell membranes, Membrane; settings: u-937; Not Active = under 50% inhibition at 10 µM
[5] = molecular target: T4, Amine oxidase [flavin-containing] A (Homo sapiens, UniProt P21397); assay: DRUGMATRIX: Monoamine Oxidase MAO-A enzyme inhibition (substrate: Kynuramine); parameters: species or system BTI-TN-5B1-4; settings: bti-tn-5b1-4; Not Active = under 50% inhibition at 10 µM
T4 sequence (P21397 whole entry): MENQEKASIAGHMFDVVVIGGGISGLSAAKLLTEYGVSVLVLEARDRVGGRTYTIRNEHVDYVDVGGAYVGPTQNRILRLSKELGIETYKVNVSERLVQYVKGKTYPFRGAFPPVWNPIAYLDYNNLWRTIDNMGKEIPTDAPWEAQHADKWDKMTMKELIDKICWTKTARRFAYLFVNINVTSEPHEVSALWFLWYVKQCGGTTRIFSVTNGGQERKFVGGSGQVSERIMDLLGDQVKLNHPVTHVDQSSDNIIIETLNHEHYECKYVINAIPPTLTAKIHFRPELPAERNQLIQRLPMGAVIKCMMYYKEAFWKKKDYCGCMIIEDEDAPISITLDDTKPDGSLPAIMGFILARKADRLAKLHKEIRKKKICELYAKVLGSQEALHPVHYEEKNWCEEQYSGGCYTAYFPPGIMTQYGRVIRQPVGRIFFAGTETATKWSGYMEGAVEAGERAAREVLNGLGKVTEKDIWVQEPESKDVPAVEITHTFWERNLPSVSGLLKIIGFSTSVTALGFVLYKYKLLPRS

[6] = DRUGMATRIX: Calcium Channel Type L, Dihydropyridine radioligand binding (ligand: [3H] Nitrendipine); format: cell membranes, Rattus norvegicus, Wistar, Cerebral cortex, Membrane; settings: Not Active = under 50% inhibition at 10 µM
Adenosine receptor A2a = Adenosine receptor A2a (Homo sapiens, UniProt P29274); assay: DRUGMATRIX: Adenosine A2A radioligand binding (ligand: […]); format: cell membranes, HEK293, Membrane; settings: hek293; Not Active = under 50% inhibition at 10 µM
Chain of Adenosine receptor A2a (P29274 whole entry): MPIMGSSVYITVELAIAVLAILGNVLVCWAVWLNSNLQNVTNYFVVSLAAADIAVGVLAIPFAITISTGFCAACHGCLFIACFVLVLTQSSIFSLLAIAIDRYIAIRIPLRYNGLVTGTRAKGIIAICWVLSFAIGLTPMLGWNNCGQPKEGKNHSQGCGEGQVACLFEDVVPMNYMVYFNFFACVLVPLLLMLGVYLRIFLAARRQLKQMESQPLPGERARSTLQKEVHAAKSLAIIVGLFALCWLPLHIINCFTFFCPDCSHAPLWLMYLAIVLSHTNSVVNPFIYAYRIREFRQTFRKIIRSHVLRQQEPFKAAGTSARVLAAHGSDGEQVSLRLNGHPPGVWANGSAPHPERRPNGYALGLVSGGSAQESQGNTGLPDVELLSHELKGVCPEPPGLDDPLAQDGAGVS

[7] = molecular target: T5, Alpha-1A adrenergic receptor (Rattus norvegicus, UniProt P43140); assay: DRUGMATRIX: Alpha-1A adrenergic receptor radioligand binding (ligand: prazosin); format: cell membranes, Wistar, Submaxillary gland, Membrane; settings: Not Active = under 50% inhibition at 10 µM; for Ki: read-out: Ki
T5 sequence (P43140 whole entry): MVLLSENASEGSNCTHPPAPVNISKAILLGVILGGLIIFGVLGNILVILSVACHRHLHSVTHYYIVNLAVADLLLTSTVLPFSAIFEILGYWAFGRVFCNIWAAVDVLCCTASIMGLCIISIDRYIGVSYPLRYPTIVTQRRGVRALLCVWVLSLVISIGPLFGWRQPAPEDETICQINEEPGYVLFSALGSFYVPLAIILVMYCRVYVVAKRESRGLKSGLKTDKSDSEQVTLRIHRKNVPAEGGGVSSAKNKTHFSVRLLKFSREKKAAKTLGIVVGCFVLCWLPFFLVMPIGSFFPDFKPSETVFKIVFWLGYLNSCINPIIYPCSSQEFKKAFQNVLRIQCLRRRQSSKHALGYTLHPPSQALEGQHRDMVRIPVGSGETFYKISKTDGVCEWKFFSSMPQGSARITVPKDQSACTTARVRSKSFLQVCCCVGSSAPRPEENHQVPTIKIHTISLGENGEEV

[8] = molecular target: Mitogen-activated protein kinase 3 (Homo sapiens, UniProt P27361); assay: DRUGMATRIX: Protein Serine/Threonine Kinase, ERK1 enzyme inhibition (substrate: Myelin Basic Protein); parameters: species or system Escherichia coli; settings: Not Active = under 50% inhibition at 10 µM
Chain of Mitogen-activated protein kinase 3 (P27361 whole entry): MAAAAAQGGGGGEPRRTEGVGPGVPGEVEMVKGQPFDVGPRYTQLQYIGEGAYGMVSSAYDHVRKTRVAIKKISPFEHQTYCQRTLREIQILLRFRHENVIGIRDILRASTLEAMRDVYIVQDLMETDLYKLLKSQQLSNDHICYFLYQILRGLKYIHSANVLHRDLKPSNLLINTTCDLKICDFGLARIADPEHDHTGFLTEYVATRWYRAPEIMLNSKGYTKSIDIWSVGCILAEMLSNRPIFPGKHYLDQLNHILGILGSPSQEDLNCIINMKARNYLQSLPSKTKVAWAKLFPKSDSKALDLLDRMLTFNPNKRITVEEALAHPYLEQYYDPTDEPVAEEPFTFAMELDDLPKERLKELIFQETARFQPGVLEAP

| Compound | IC50 ([1]; cho-k1) | IC50 [2] | IC50 (Progesterone receptor) | IC50 [3] | IC50 [4] | Ki [4] | IC50 [5] | IC50 [6] | Ki [6] | IC50 (Adenosine receptor A2a) | IC50 [7] | IC50 [8] | IC50 ([7]; read-out: IC50) [nM] | Ki [7] [nM] | IC50 ([1]; read-out: IC50) [nM] | Ki [1] [nM] | IC50 (Progesterone receptor; read-out: IC50) [nM] | Ki (Progesterone receptor; read-out: Ki) [nM] |
| --- | --- | --- | --- | --- | --- | --- | --- | --- | --- | --- | --- | --- | --- | --- | --- | --- | --- | --- |
| CC(C)(C)NC(=O)[C@@H]1CN(Cc2cccnc2)CCN1C[C@@H](O)C[C@@H](Cc1ccccc1)C(=O)N[C@H]1c2ccccc2C[C@H]1O.O | Not Active | Not Active | Not Active | Not Active | Not Active | Not Active | Not Active | Not Active | Not Active | Not Active | Not Active | Not Active | – | – | – | – | – | – |
| COc1ccc(CCN2CCC(Nc3nc4ccccc4n3Cc3ccc(F)cc3)CC2)cc1 [ASTEMIZOLE] | – | Not Active | Not Active | Not Active | – | – | Not Active | – | – | Not Active | – | Not Active | 24 | 9.9 | – | – | – | – |
| CN(C)CCCN1c2ccccc2CCc2ccc(Cl)cc21 [CLOMIPRAMINE] | – | Not Active | Not Active | Not Active | – | – | Not Active | – | – | Not Active | – | Not Active | – | – | 34 | 18 | – | – |
| Clc1ccccc1C(c1ccccc1)(c1ccccc1)n1ccnc1 [CLOTRIMAZOLE] | – | Not Active | – | Not Active | – | – | Not Active | – | – | – | – | Not Active | 26300 | 10700 | 14500 | 7580 | 8770 | 1140 |
| O=C(CCCN1CCC(O)(c2ccc(Cl)cc2)CC1)c1ccc(F)cc1 [HALOPERIDOL] | – | Not Active | – | Not Active | – | – | Not Active | – | – | Not Active | – | Not Active | – | – | – | – | – | – |
| CCC[C@@H]1C[C@@H](C(=O)N[C@@H]([C@H]2O[C@H](SC)[C@H](O)[C@@H](O)[C@H]2O)[C@@H](C)O)N(C)C1 [LINCOMYCIN] | Not Active | Not Active | – | Not Active | Not Active | Not Active | Not Active | Not Active | Not Active | Not Active | Not Active | Not Active | – | – | – | – | – | – |
| COS(C)(=O)=O [METHANESULFONIC ACID METHYL ESTER] | Not Active | Not Active | – | Not Active | Not Active | Not Active | Not Active | Not Active | Not Active | Not Active | Not Active | Not Active | – | – | – | – | – | – |
| CN1CCN2c3ccccc3Cc3ccccc3C2C1 (stereo not drawn) [MIANSERIN] | – | Not Active | Not Active | Not Active | – | – | Not Active | – | – | Not Active | – | Not Active | – | – | – | – | – | – |
| O=C1c2c(O)ccc(O)c2C(=O)c2c(NCCNCCO)ccc(NCCNCCO)c21 [MITOXANTRONE] | – | Not Active | Not Active | Not Active | Not Active | Not Active | Not Active | Not Active | Not Active | Not Active | Not Active | Not Active | – | – | – | – | – | – |
| CC(C)(O)c1ccccc1CC[C@@H](SCC1(CC(=O)O)CC1)c1cccc(/C=C/c2ccc3ccc(Cl)cc3n2)c1 [MONTELUKAST] | Not Active | Not Active | Not Active | Not Active | – | – | Not Active | – | – | Not Active | Not Active | Not Active | – | – | – | – | – | – |
| CSc1ccc2c(c1)N(CCC1CCCCN1C)c1ccccc1S2 (stereo not drawn) [THIORIDAZINE] | – | Not Active | Not Active | Not Active | – | – | Not Active | – | – | Not Active | – | Not Active | 5.09 | 2.06 | – | – | – | – |
| COc1cccc(C2(O)CCCCC2CN(C)C)c1 (stereo not drawn) [TRAMADOL] | Not Active | Not Active | Not Active | Not Active | – | – | Not Active | – | – | Not Active | Not Active | Not Active | – | – | – | – | – | – |
| CN1[C@@H]2CC[C@H]1C[C@@H](OC(=O)c1c[nH]c3ccccc13)C2 [TROPISETRON] | Not Active | Not Active | – | Not Active | Not Active | Not Active | Not Active | Not Active | Not Active | Not Active | Not Active | Not Active | – | – | – | – | – | – |
| COC(=O)[C@@H]1[C@H]2C[C@H]3c4[nH]c5ccccc5c4CCN3C[C@@H]2CC[C@@H]1O [YOHIMBINE] | Not Active | Not Active | Not Active | Not Active | Not Active | Not Active | Not Active | Not Active | Not Active | Not Active | – | Not Active | – | – | – | – | – | – |
